This note sets out measurements from patent US20100029609A1 (priority 2006, published 2010).

Molecules are shown by their SMILES.

This assay addresses T1, human S1P1 receptors (Homo sapiens, UniProt P21453).
T1 construct: expressed in transfected cells; host or cells: HeLa (human cervix carcinoma, ATCC CCL2), HeLa-S1P1/Gα16 cell clone 1
The experiment in a line: Human S1P Receptor Calcium FLIPR Antagonist Assay, HeLa Gα16 S1P1. It counts as cell-based. To be noted: HeLa-S1P1/Gα16 cells; antagonism of Ca2+ signal of probing agonist GNF-AC-1 at EC80. From the text:
Human S1P Receptor Calcium FLIPR Antagonist Assays
The assay measures intracellular changes of Ca^2+ mediated by the synthetic probing agonist 3-{[2-(2-Trifluoromethyl-biphenyl-4-yl)-benzo[b]thiophen-5-ylmethyl]-amino}-propionic acid (GNF-AC-1) in the HeLa-S1P1/Gα16 cell clone 1: HeLa (human cervix carcinoma, ATCC CCL2) cells stably expressing N-terminally myc-tagged human S1P1 receptors (GenBank™ accession No. NM_001400; UNIPROT P21453) and promiscuous Gα16 protein (GenBank™ accession number M63904, Swissprot P30679) are cultured at 37° C., 5% CO2, and 95% relative humidity. The cells are plated in 384 well black plates (10,000 cells per well). After 24 hours the cells are loaded with Fluo4-AM (1.6 μM in HBSS and 2.5 mM probenicid) for 1 hour at 37° C. After washing, the cells are transferred to the FLIPR. The test compounds are added at different concentrations (≦30 μM) in HBSS in the presence of 0.1% BSA and changes in fluorescence are recorded (indication of agonism). The probing agonist is added 15 minutes afterwards to the wells at a concentration giving 80% of the maximal activity (EC80). After each addition time points are collected as follows: 20 time points (2 seconds) before the addition of the agonist (Fmin) and 60 time points (1 or 2 seconds) after the addition of the probing agonist. This allows the determination of the maximal fluorescence (Fmax). The ratio (Fmax-Fmin)/Fmin is plotted against the log of the concentration of the test compounds and the IC50 (relative antagonism) is determined with the help of XLfit-4 software. […] A dose response curve of the probing agonist is determined on each plate in parallel. The compounds of the invention are typically active in this assay at a concentration ranging typically from <1 nM to 30 μM, usually from less than 1 nanomolar to 1 micromolar.

T1 sequence (P21453 whole entry): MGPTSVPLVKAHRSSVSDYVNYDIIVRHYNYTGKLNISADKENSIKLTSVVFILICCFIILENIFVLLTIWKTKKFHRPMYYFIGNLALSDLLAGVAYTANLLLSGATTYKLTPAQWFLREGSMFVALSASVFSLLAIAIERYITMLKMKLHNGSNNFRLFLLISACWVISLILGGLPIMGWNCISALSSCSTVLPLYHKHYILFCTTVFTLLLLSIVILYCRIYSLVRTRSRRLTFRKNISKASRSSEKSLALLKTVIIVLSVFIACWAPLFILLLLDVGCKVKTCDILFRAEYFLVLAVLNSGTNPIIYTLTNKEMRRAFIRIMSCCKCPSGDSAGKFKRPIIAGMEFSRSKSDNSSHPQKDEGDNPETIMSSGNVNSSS

As usually defined, the IC50 is the concentration needed to halve the response being measured. `Cc1cc(S(=O)(=O)Nc2cccc(-c3cc(C)c(C(=O)N[C@@H](CO)C(N)=O)c(C)c3)c2)c(C)cc1Cl` [Example 153, 3′-(4-Chloro-2,5-dimethyl-benzenesulfonylamino)-3,5-dimethyl-biphenyl-4-carboxylic acid ((S)-1-carbamoyl-2-hydroxy-ethyl)-amide]: the IC50 stood at 3 nM.

With `CCc1cc(-c2cccc(NS(=O)(=O)c3cc(C)c(Cl)cc3C)c2)ccc1C(=O)N[C@@H](C)C(=O)O` [Example 154, (S)-2-{[3′-(4-Chloro-2,5-dimethyl-benzenesulfonylamino)-3-ethyl-biphenyl-4-carbonyl]-amino}-propionic acid], the IC50 was 1.7 nM.

Consider `Cc1cc(S(=O)(=O)Nc2cccc(-c3cc(C)c(C(=O)NC4(C(=O)O)CCN(C)CC4)c(C)c3)c2)c(C)cc1Cl` [Example 155, 4-{[3′-(4-Chloro-2,5-dimethyl-benzenesulfonylamino)-3,5-dimethyl-biphenyl-4-carbonyl]-amino}-1-methyl-piperidine-4-carboxylic acid], for which the half-maximal inhibitory concentration (IC50) was 2 nM.

For the molecule `Cc1cc(S(=O)(=O)Nc2cccc(-c3ccc(CN[C@H](CO)C(=O)O)cc3)c2)c(C)cc1Cl` [Example 157, (R)-2-{[3′-(4-Chloro-2,5-dimethyl-benzenesulfonylamino)-biphenyl-4-ylmethyl]-amino}-3-hydroxy-propionic acid], the IC50 is 4.7 nM.
